Assay results taken from patent US20210115509A1, “BIOMARKER FOR IDENTIFYING SPECIFIC EXPOSURE TO KETONES AND METHOD OF IDENTIFICATION USING THE SAME” (KOREA INSTITUTE OF SCIENCE AND TECHNOLOGY, priority 2019, published 2021).

Columns and labels:
[1] = test system: BEAS-2B human bronchial epithelial cell line; assay: MTT assay, cytotoxicity of ketone compounds in BEAS-2B cell line; assay type: cell-based; details: BEAS-2B, 48 hours, MTT
Experimental: BEAS-2B (Korean Cell Line Bank), a human bronchial epithelial cell line, was cultured using RPMI 1640 medium (Gibco, USA) supplemented with 10% FBS until the cells grew to about a confluence of 70 to 80% in a 100 mm dish.
Among ketones belonging to mVOCs (microbial volatile organic compounds) exposed to the environment, acetone, 2-butanone, 2-pentanone, 2-hexanone and 2-heptanone were selected, and the chemicals were dissolved in filtered distilled water (DW). A vehicle concentration was set to 0.1% or less in all experiments.
MTT assay using a BEAS-2B cell line was performed in accordance with the method of Mossman et al. (J. Immunol. Methods, 65, 55-63, 1983).
Specifically, the cells were seeded at a density of 3.5×10^4 cells/well in a 24-well plate and treated with the five ketone compounds dissolved in filtered distilled water, prepared in Example 1-2. After 48 hours, the result was mixed with 5 mg/ml of MTT (3-4,5-dimethylthiazol-2,5-diphenyltetrazolium bromide), added to a tube and incubated at 37° C. for 3 hours. Then, the medium was removed, the formed formazan crystal was dissolved in 500 μl of DMSO, and then 100 μl of the solution was transferred to a 96-well plate to measure an OD (optical density) value at 540 nm.

[2] = test system: BEAS-2B human bronchial epithelial cell line; assay: Gene expression change by high-throughput RNA sequencing (NextSeq 500) in ketone-exposed BEAS-2B cells; assay type: cell-based
Experimental: RNA was extracted from cell samples of ketone-exposed and non-ketone-exposed groups using a TRIzol reagent (Life Technologies, USA) in accordance with the manufacturer's directions to isolate total RNA and the total RNA was purified using a RNeasy mini kit (Qiagen, USA). The concentration of each total RNA sample was determined by a ND-2000 spectrophotometer (Thermo Inc., DE, USA) as a spectrophotometer and Agilent 2100 Bioanalyzer (Agilent Technologies, USA).
The establishment of libraries from the total RNA obtained in Example 2-1 in the experimental group and the normal control group exposed to the ketones was carried out using a QuantSeq 3′ mRNA-Seq Library Prep Kit (Lexogen, Inc., Austria) in accordance with the manufacturer's directions. 500 ng of the total RNA was hybridized with an oligo-dT primer including an Illumina-compatible sequence at the 5′ end of RNA, followed by reverse transcription. After degradation of the RNA template, a second strand was synthesized using a random primer including an Illumina-compatible linker sequence at the 5′ end thereof. Double-stranded libraries were purified using magnetic beads to remove all reaction components. The library was amplified in order to add the entire adapter sequence required for cluster production, and the completed cDNA library was purified from the PCR components.
Sequencing was performed by high-throughput sequencing as single-end 75 sequencing using a NextSeq 500 (IIlumina, Inc., USA). Read count (RC) data was processed based on the quantile normalization method using EdgeR in R (R development Core Team, 2016) using Bioconductor (Gentleman et al., 2004). Gene classification was based on searches performed on DAVID (http://david.abcc.ncifcrf.gov/) and the Medline database (http://www.ncbi.nlm.nih.gov/).
The extracted data were analyzed through normalization using Agilent GeneSpring GX 12.6.1 (Agilent technologies, CA, USA) to analyze the expression pattern of each gene.

[3] = IC5 conc.: Acetone 5.38, 2-Butanone 22.27, 2-Pentanone 5.24, 2-Hexanone 14.82, 2-Heptanone 5.05 mM
[4] = IC20 conc.: Acetone 71.90, 2-Butanone 106.21, 2-Pentanone 39.38, 2-Hexanone 52.51, 2-Heptanone 20.22 mM

## CCC(C)=O [2-Butanone, 2-butanone]
[1]
  concentration (105) providing a survival rate (viability) of 95%: 22270 µM
  concentration (1020) providing a survival rate (viability) of 80%: 106210 µM
[2]; [3]
  Fold change ADRA2A (NM_000681): 0.185
  Fold change ATRNL1 (NR_074088): 3.234
  Fold change C12orf79 (NR_046159): 0.216
  Fold change C14orf80 (NR_046159): 0.356
  Fold change CALML3 (NM_001286399): 0.356
  Fold change CCDC184 (NM_001013635): 2.379
  Fold change CD37 (NM_001040031): 3.286
  Fold change CDHR1 (NM_001171971): 0.470
  Fold change CHL1 (NM_001253387): 0.274
  Fold change COL4A3 (NM_000091): 2.264
  Fold change CRLF2 (NM_022148): 0.359
  Fold change CSF3R (NM_172313): 0.356
  Fold change DNMBP-AS1 (NR_024130): 11.453
  Fold change EGR1 (NM_001964): 0.422
  Fold change GNA14 (NM_004297): 3.512
  Fold change LOC728752 (NR_036504): 3.506
  Fold change PAX8 (NM_003466): 6.636
  Fold change PRRT3-AS1 (NR_046734): 2.207
  Fold change RBP3 (NM_002900): 0.356
  Fold change SEPT14 (NM_207366): 0.458
  Fold change SERPINA12 (NM_001304461): 0.356
  Fold change SLC13A4 (NM_012450): 7.697
  Fold change SPOCK2 (NM_001244950): 3.020
  Fold change TSPAN1 (NM_005727): 2.540
  Fold change USP12-AB1 (NR_046647): 3.499
  Fold change VIPR†-AS1 (NR_046654): 0.356
  Fold change XIRP1 (NM_001198621): 0.356
  Fold change ZFP69B (NM_023070): 4.676
  Fold change ZNF432 (NM_014650): 2.326
  Fold change ZNF487 (NR_026693): 0.356
[2]; [4]
  Fold change ADRA2A (NM_000681): 0.184
  Fold change ATRNL1 (NR_074088): 2.330
  Fold change C12orf79 (NR_046159): 0.216
  Fold change C14orf80 (NR_046159): 0.356
  Fold change CALML3 (NM_001286399): 0.356
  Fold change CCDC184 (NM_001013635): 6.647
  Fold change CD37 (NM_001040031): 2.647
  Fold change CDHR1 (NM_001171971): 0.222
  Fold change CHL1 (NM_001253387): 0.268
  Fold change COL4A3 (NM_000091): 3.577
  Fold change CRLF2 (NM_022148): 0.359
  Fold change CSF3R (NM_172313): 0.356
  Fold change DNMBP-AS1 (NR_024130): 12.732
  Fold change EGR1 (NM_001964): 0.404
  Fold change GNA14 (NM_004297): 5.582
  Fold change LOC728752 (NR_036504): 6.647
  Fold change PAX8 (NM_003466): 2.233
  Fold change PRRT3-AS1 (NR_046734): 2.147
  Fold change RBP3 (NM_002900): 0.356
  Fold change SEPT14 (NM_207366): 0.217
  Fold change SERPINA12 (NM_001304461): 0.356
  Fold change SLC13A4 (NM_012450): 8.571
  Fold change SPOCK2 (NM_001244950): 8.426
  Fold change TSPAN1 (NM_005727): 2.466
  Fold change USP12-AB1 (NR_046647): 5.570
  Fold change VIPR†-AS1 (NR_046654): 0.356
  Fold change XIRP1 (NM_001198621): 0.356
  Fold change ZFP69B (NM_023070): 2.942
  Fold change ZNF432 (NM_014650): 6.342
  Fold change ZNF487 (NR_026693): 0.356
